Here are results for three molecules from US20060252774A1, “Regulation of type 5 adenylyl cyclase for treatment of neurodegenerative and cardiac diseases” (priority 2002, published 2006).

Assay [1] relates to WT and AC5KO mice. The assay is described as follows: Locomotor activity test with dopaminergic agonists. The class given is in vivo, mouse. Particulars: subcutaneous, SKF38393 25 or 50 mg/kg, cabergoline 0.2 or 1.0 mg/kg. The protocol:
FIG. 27. Motor dysfunction in ACD-^−/− mice. Rotarod test (A)—Each mouse was placed on a 3.5-cm diameter rod covered with rubber to evaluate rotarod performance (14). Mice were left for 1 minute on the rod for habituation. The rod rotated gradually increasing from 4 to 40 rpm over the course of 5 min and the time that mice could stay on an accelerating rotarod without failing was recorded. Five trials were conducted for each individual 10-25 min apart within the dark phase of the light/dark cycle. Mice that stayed on the rotarod for >300 sec were considered complete responders, and their latencies were recorded as 300 sec. *p<0.05, relative to ^+/+; ^+/−, n=17-20. […] Locomotor activity (B) was assessed using an activity monitor equipped with photocell beams (Columbus Instruments, Ohio, USA). The number of photobeam interruptions in each perpendicular axis was recorded and totaled for 5 min. The behavior of the mice was recorded simultaneously by video camera for later analysis, and their rearing actions were counted (C). *p<0.05, relative to ^+/+, n=15-20. […] The time until it turned completely downward (open bars, Tturn) and the time until it climbed down to the floor (closed bars, TLA) were measured *p<0.01, relative to ^+/+, n=14-17. […]
FIG. 32. […] In rotarod test, the best performance out of five trials in each individual was evaluated. […]

Assay [2] concerns WT and AC5KO mice. As to the kind of experiment: Rotarod test with dopaminergic agonists. The class given is in vivo, mouse. The settings on record: subcutaneous, 0.2 or 1.0 mg/kg. Here is the method: (§1) FIG. 27. Motor dysfunction in ACD-^−/− mice. Rotarod test (A)—Each mouse was placed on a 3.5-cm diameter rod covered with rubber to evaluate rotarod performance (14). Mice were left for 1 minute on the rod for habituation. The rod rotated gradually increasing from 4 to 40 rpm over the course of 5 min and the time that mice could stay on an accelerating rotarod without failing was recorded. Five trials were conducted for each individual 10-25 min apart within the dark phase of the light/dark cycle. Mice that stayed on the rotarod for >300 sec were considered complete responders, and their latencies were recorded as 300 sec. *p<0.05, relative to ^+/+; ^+/−, n=17-20. Activity tests (B and C)—The tests were performed as previously described (14, 15). Mice were put in the darkened testing room 60 minutes for habituation before testing. Locomotor activity (B) was assessed using an activity monitor equipped with photocell beams (Columbus Instruments, Ohio, USA). The number of photobeam interruptions in each perpendicular axis was recorded and totaled for 5 min. The behavior of the mice was recorded simultaneously by video camera for later analysis, and their rearing actions were counted (C). *p<0.05, relative to ^+/+, n=15-20. Pole test (D)—In order to evaluate bradykinesia, pole test was performed (16). In brief, mice were placed head upward on the top of a rough-surfaced pole (8 mm in diameter and 50 cm in height) that was wrapped with gauze to prevent slipping. The time until it turned completely downward (open bars, Tturn) and the time until it climbed down to the floor (closed bars, TLA) were measured *p<0.01, relative to ^+/+, n=14-17. Means±SEM are shown. Homozygous to (ACD^−/−) (closed circles, ^−/−), heterozygous (shaded circles, ^+/−), and wild type (WT) (open circles, ^+/+).
(§2) FIG. 32. Effect of dopaminergic agonists on motor functions Effects of SKF38393 on locomotor activity (A), rotarod test (B), and pole test (C) were compared. […] In rotarod test, the best performance out of five trials in each individual was evaluated. […]
Background: The rotarod test checks motor coordination on a turning rod.

The test system of assay [3] is WT and AC5KO mice. As to the kind of experiment: Pole test with dopaminergic agonists. The class given is in vivo, mouse. Here is the method:
as §1, §2

In a further assay the test system is cardiac AC. As to the kind of experiment: AC assay in heart membrane preparations. The class given is biochemical, mouse. The settings on record: 100 μmol/L ISO + 100 μmol/L GTP. The protocol: FIG. 17: Adrenergic, muscarinic, and Ca^2+-mediated regulation of cardiac AC activity. A, AC activity in vitro. The steady state AC activity was determined as the maximal cAMP production over 15 min. Stimulation was performed at the level of the β-AR (ISO), G-protein (GTPγS) and AC catalytic unit with forskolin (Fsk). *P<0.01, n=5. B, Effects of carbachol on AC activity. AC was preactivated by ISO. AC activity was then determined in the absence and presence of carbachol. Carbachol at 10 μmol/L produced its maximal inhibitory effect. *P<0.01, n−5. C, To investigate the inhibition of AC activity by Ca^2+, we examined cAMP production in membranes from the hearts of WT and AC5KO at increasing Ca^2+ concentrations in the presence of ISO. ISO-stimulated AC activity was inhibited more in WT than in AC5KO. […].
Hearts were dissected from the mice and membrane preparations were prepared as described previously. Protein concentration was measured by the method of Bradford using bovine serum albumin as a standard. AC activity was measured as described previously. AC activity was linear within the incubation time up to 30 min. In order to harvest hearts for tissue cAMP content measurements, mice were allowed to acclimate to the surroundings in the laboratory for an hour before sacrifice. Freshly isolated hearts were briefly immersed in liquid nitrogen. The tissue was homogenized in ice-cold 6% percholic acid, and cAMP was extracted as described before. The concentration of cAMP was determined with an RIA kit (PerkinElmer Life Sciences, Boston, Mass., USA).
Hearts were dissected from the mice, and membrane preparations were prepared as described previously. Protein concentration was measured by the Bradford method using bovine serum albumin as a standard. AC activity was measured as described previously. AC activity was linear within the incubation time up to 30 min. For the study of Ca 2+ inhibition, the membranes were treated first with EGTA to extract the endogenous Ca 2+ prior to the assay. Free Ca 2+ concentrations were obtained with the use of 200 μmol/L EGTA buffers as described previously. The experiments with Ca 2+ inhibition were conducted in the presence of 100 μmol/L isoproterenol (ISO)+100 μmol/L GTP.

In a further assay the test system is L-type Ca2+ channels. As to the kind of experiment: Whole-cell patch-clamp of Ca2+ channel currents (ICa) in myocytes. Type of assay: cell-based, mouse. An excerpt:
FIG. 22: A, Effects of ISO (1 μmol/L) on ICa in WT and AC5KO myoctyes. Traces show currents recorded from a holding potential of −50 mV to indicated potentials in control before (a) and after application of ISO (1 μmol/L) (b). Peak ICa were normalized to the cell capacitance to give current densities (pA/pF) and were plotted as a function of voltage (c). B, Concentration-dependent effects of ISO on ICa measured in myocytes dialyzed with EGTA or BAPTA, and on Ba^2+ currents with EGTA. The relative increase of peak current amplitude was plotted against ISO concentration. The solid lines were best fit to one-to-one binding model. Data are from 8-30 myocytes.
Whole-cell currents were recorded using patch-clamp techniques. Cell capacitance was measured using voltage ramps of 0.8 V/s from a holding potential of −50 mV. All experiments were performed at room temperature. […] The pipette solution contained (mmol/L): Cs-aspartate, 100; CsCl, 20; MgCl2, 1; MgATP, 2; GTP, 0.5; EGTA, 5 or 1,2-bis (2-aminophenoxy)ethane-N,N,N′,N′-tetraacetic acid (BAPTA), 10 and HEPES, 5 (Ph 7.3). […] Nifedipine (10 μmol/L) was added to block L-type Ca^2+ channel currents. The patch pipette solution contained (mmol/L): potassium aspartate, 110; KCl, 20; MgCl2, 2; ATP, 2; GTP, 0.5; EGTA, 5; HEPES, 5 (pH 7.3).
Ca^2+ influx through L-type Ca^2+ channels is essential for cardiac contractility, thus basic Ca^2+ channel properties were characterized. Peak inward ICa amplitude (with 5 mmol/L EGTA in the pipette solution), normalized relative to cell capacitance (ICa density), was similar in myocytes isolated from AC5KO (7.1±0.3 pA/pF, n=69) and WT (6.7±0.3 pA/pF, n=55). […] In these experiments myocytes were dialyzed with BAPTA, and peak ICa amplitude, as the function of voltage (I-V relationships) before and after exposure to ISO, was determined. In both groups, ISO increased the current amplitude at all test potentials and also shifted the I-V relationships toward more negative potentials.

The test system of assay [4] is WT, hetero and AC5KO mice. The assay is described as follows: Rotor-rod test after db-cAMP injection. The class given is in vivo, mouse. The protocol: FIG. 9: Effects of db-cAMP on rotor-rod test. Tests were performed before (pre), 30 minutes after (post), and 48 hours after (next) the injection of db-cAMP to WT, hetero and AC5KO (n=4-7).
The locomotor activity of intact animals, AC5KO versus WT was examined (FIG. 5). At first glance the animals appeared normal, being neither catatonic nor rigid. […] The mice were studied using a rotor rod test in which mice were placed on a rototating rod and had to make continuous adjustment in balance in order to remain upright. The time that the mice spent on the accelerating rotor rod without falling was measured. The rod increased from 3 rpm to 30 rpm during each 5 min. trial. […] There was no significant difference between WT and Hetero at the 1st through 4th trial. At the 5th trial, there was a small but signiifcant decrease in their performance in Hetero.
Motor function may be improved by the administration of cAMP analogues.

As for `C=CCN1C[C@H](C(=O)N(CCCN(C)C)C(=O)NCC)C[C@@H]2c3cccc4[nH]cc(c34)C[C@H]21` [Cabergoline], the locomotor activity entry with WT and AC5KO mice [1] is “no significant effect on locomotor activity in both WT and AC5KO”. The rotarod performance result with WT and AC5KO mice [2] (AC5KO) is on record as “improved rotarod performance selectively in AC5KO”; in the assay with WT and AC5KO mice [2] (WT), “essentially had no effect on WT”. Besides, the “pole test performance at the lower dose” value in the assay on WT and AC5KO mice [3] (0.2 mg/kg) is listed as “dramatic improvement”. Besides, the pole test performance result in the assay on WT and AC5KO mice [3] (subcutaneous) was “improved pole test performance”.
With `CC(C)NCC(O)c1ccc(O)c(O)c1` (stereo not shown) [ISO, isoproterenol], the “increase of AC activity” value is reported as 64±4 pmol/15 min/mg with cardiac AC (AC5KO heart membranes) and 78±6 pmol/15 min/mg in the assay with cardiac AC (WT heart membranes). The “maximum response of the Ca2+ channel (relative increase of peak current)” value is around 1.5 fold in the assay with L-type Ca2+ channels (AC5KO myocytes, all three conditions (EGTA, BAPTA, Ba2+)); around 1.7 fold in the assay on L-type Ca2+ channels (WT myocytes dialyzed with EGTA); around 2.4 fold in the assay on L-type Ca2+ channels (WT myocytes, BAPTA or Ba2+).
As for `CCCC(=O)Nc1ncnc2c1ncn2[C@@H]1O[C@@H]2COP(=O)(O)O[C@H]2[C@H]1OC(=O)CCC` [db-cAMP], in assay [4] (AC5KO, 30 minutes after injection), the “improvement of time on the rod” value was “two-fold increase”. Besides, the “rotor rod performance 48 hours after injection” value in assay [4] (AC5KO, 48 hours after injection) is “dropped to the basal level”. The “improvement of time on the rod, increase” value in assay [4] (hetero and WT, 30 minutes after injection) is 25-30%.
